Reference: patent US10301304B2, “Selective inhibitor of phosphatidylinositol 3-kinase-gamma” (VERTEX PHARMACEUTICALS INCORPORATED, priority 2013, dated 2019)

Legend:
[1] = molecular target: PI3K-α (Homo sapiens, UniProt P42336); experiment: PI3K Inhibition Assay; format: biochemical
Protocol: (§1) Using a Biomek FX from Beckman Coulter, 1.5 μL of each of ten 2.5-fold serial dilutions of the compound of the invention in 100% DMSO was added to an individual well (hereafter, “test well”) in a 96 well polystyrene plate [Corning, Costar Item No. 3697]. One test well also contained 1.5 μL of DMSO with no compound. […] Using a Titertek Multidrop, 50 μL of Reaction Mix [100 mM HEPES pH 7.5, 50 mM NaCl, 10 mM DTT, 0.2 mg/mL BSA, 60 μM phosphatidylinositol(4,5)-bisphosphate diC16 (PI(4,5)P2; Avanti Polar Lipids, Cat. No. 840046P) and PI3K isoform of interest (see Table 1 for isoform concentrations)] was added to each well. To initiate the reaction, 50 μL of ATP Mix [20 mM MgCl2, 6 μM ATP (100 μCi/μmole ^33P-ATP was added to each well, followed by incubating the wells for 30 min. at 25° C. Final concentrations in each well were 50 mM HEPES 7.5, 10 mM MgCl2, 25 mM NaCl, 5 mM DTT, 0.1 mg/mL BSA, 30 μM PI(4,5)P2, 3 μM ATP, and the PI3K isoform of interest (see Table 2). Final compound concentrations in each well ranged from 10 μM to 1 nM.
(§2) After incubation, the reactions in each well were quenched by addition of 50 μL of stop solution [30% TCA/Water, 10 mM ATP]. Each quenched reaction mixture was then transferred to a 96 well glass fiber filter plate [Corning, Costar Item No. 3511]. The plate was vacuum-filtered and washed three times with 150 μL of 5% TCA/water in a modified Bio-Tek Instruments ELX-405 Auto Plate Washer. 50 μL of scintillation fluid was added to each well and the plate read on a Perkin-Elmer TopCount™ NXT liquid scintillation counter to obtain ^33P-counts representing inhibition values.
(§3) The value for the background well was subtracted from the value obtained for each test well and the data were fit to the competitive tight binding Ki equation described by Morrison and Stone, Comments Mol. Cell Biophys. 2: 347-368, 1985. […] In addition, isoform selectivity was also seen as Compound 1 was tested against PI3K-alpha, PI3K-beta, and PI3K-delta isoforms and was determined to have a selectivity of greater than 15 fold for PI3K-gamma as shown in Table 2.

[2] = molecular target: PI3K-β (Homo sapiens, UniProt P42338); experiment: PI3K Inhibition Assay; format: biochemical
Protocol: as §1, §2, §3

[3] = molecular target: PI3K-γ (Homo sapiens, UniProt P48736); experiment: PI3K Inhibition Assay; format: biochemical
Protocol: as §1, §2, §3

[4] = molecular target: PI3K-δ (Homo sapiens, UniProt O00329); experiment: PI3K Inhibition Assay; format: biochemical
Protocol: as §1, §2, §3

[5] = test system: whole blood neutrophils and monocytes (PI3K-gamma); experiment: Whole Blood oxidative burst; format: cell-based; settings: presence of serum, read-out: IC50 Average ± Standard Deviation
Text: Neutrophils, monocytes and macrophages are key mediators of innate immunity. They release reactive oxygen species (ROS) as part of the innate immune inflammatory response. ROS production is induced by inflammatory mediators like chemokines, bacterial peptides and complement that recruit the innate immune cells to the site of inflammation. These inflammatory mediators trigger activation of PI3K-gamma and initiate a downstream signaling cascade that leads to the assembly of the complete NADPH oxidase complex at the plasma membrane generating ROS. PI3K-gamma functional activity was measured in whole blood and huffy coat neutrophils and monocytes via the generation of ROS. The cells are stimulated with TNF-alpha for 10 minutes, then with bacterial cell wall-derived chemotactic peptide, fMLP, for 20 minutes, and loaded with a non-fluorescent dye […] (DHR). ROS produced by the cells oxidizes DHR to fluorescent rhodamine causing an increase in fluorescent rhodamine content in the cells. PI3K-gamma functional activity is measured by the ability of neutrophils and monocytes to generate ROS following fMLP stimulation. Leukocytes and whole blood samples were analyzed on a BD FACSCalibur™ to quantitate cells positive for fluorescent rhodamine. Buffy coat cells generate IC50S in the absence of serum and whole blood assay generates IC50S in the presence of serum.

[6] = test system: collagen-induced arthritis (CIA); experiment: therapeutic mouse collagen-induced arthritis (CIA) model; format: in vivo; parameters: Histopathology Summed Score, Knees / Therapeutic Paw Score AUC / Histopathology Summed Score, Six Joints / Histopathology Summed Score, Paws: scale not given here; settings: for All Paw Score AUC / Histopathology Summed Score, Knees / Histopathology Summed Score, Paws / Histopathology Summed Score, Six Joints / Prophylactic Paw Score AUC / Therapeutic Paw Score AUC: 10 days; for Arthritis scores measured daily, all paws (FIG. 1): *d2-11, vs vehicle
Protocol: Compound 1 was tested in the therapeutic mouse collagen-induced arthritis (CIA) model at 2.5 mg/kg BID (5 mg/kg/day), 5 mg/kg BID (10 mg/kg/day) or 10 mg/kg BID (20 mg/kg/day). Fostamatinib, a Syk small molecule inhibitor used as a reference standard, was dosed orally at 30 mg/kg BID (60 mg/kg/day). Compounds were dosed for 10 days in a 12/12-hour BID dosing regimen until the end of the study. Compound 1 was formulated in 0.2% MC, 1% SLS. Dosing volume was 10 mL/kg. Terminal plasma samples were collected at 2, 4 and 12 hours post last dose. All four paws and both knees were collected and processed for histopathology.

Sequence of PI3K-γ (P48736 whole entry, species assumed): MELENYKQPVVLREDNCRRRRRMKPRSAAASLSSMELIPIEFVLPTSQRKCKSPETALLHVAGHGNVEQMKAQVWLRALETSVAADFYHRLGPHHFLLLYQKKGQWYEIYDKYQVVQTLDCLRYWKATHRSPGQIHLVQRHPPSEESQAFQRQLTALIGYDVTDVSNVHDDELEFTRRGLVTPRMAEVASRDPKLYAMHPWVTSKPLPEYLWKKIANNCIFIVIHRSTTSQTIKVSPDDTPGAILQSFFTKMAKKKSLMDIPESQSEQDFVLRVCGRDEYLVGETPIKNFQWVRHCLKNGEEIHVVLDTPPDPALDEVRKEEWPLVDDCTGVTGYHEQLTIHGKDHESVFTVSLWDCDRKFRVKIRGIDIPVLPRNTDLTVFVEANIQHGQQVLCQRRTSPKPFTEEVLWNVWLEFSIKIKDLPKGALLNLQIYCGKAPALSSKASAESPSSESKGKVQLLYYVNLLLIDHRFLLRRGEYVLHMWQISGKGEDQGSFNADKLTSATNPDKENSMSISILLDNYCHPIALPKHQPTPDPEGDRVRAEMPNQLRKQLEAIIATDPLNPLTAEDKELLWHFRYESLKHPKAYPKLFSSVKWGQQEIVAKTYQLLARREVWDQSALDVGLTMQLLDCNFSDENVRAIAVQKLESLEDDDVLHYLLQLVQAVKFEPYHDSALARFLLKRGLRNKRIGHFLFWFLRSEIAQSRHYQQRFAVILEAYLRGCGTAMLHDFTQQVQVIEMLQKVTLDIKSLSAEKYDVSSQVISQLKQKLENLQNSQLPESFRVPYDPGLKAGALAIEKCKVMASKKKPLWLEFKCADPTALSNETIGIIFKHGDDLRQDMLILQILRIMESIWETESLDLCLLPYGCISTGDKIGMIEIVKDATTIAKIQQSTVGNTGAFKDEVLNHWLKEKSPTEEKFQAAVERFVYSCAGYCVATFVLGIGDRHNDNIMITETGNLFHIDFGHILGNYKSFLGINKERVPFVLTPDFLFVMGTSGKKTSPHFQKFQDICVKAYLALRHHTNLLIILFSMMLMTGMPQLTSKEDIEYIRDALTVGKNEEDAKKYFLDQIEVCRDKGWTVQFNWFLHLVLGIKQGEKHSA
Sequence of PI3K-δ (O00329 whole entry, species assumed): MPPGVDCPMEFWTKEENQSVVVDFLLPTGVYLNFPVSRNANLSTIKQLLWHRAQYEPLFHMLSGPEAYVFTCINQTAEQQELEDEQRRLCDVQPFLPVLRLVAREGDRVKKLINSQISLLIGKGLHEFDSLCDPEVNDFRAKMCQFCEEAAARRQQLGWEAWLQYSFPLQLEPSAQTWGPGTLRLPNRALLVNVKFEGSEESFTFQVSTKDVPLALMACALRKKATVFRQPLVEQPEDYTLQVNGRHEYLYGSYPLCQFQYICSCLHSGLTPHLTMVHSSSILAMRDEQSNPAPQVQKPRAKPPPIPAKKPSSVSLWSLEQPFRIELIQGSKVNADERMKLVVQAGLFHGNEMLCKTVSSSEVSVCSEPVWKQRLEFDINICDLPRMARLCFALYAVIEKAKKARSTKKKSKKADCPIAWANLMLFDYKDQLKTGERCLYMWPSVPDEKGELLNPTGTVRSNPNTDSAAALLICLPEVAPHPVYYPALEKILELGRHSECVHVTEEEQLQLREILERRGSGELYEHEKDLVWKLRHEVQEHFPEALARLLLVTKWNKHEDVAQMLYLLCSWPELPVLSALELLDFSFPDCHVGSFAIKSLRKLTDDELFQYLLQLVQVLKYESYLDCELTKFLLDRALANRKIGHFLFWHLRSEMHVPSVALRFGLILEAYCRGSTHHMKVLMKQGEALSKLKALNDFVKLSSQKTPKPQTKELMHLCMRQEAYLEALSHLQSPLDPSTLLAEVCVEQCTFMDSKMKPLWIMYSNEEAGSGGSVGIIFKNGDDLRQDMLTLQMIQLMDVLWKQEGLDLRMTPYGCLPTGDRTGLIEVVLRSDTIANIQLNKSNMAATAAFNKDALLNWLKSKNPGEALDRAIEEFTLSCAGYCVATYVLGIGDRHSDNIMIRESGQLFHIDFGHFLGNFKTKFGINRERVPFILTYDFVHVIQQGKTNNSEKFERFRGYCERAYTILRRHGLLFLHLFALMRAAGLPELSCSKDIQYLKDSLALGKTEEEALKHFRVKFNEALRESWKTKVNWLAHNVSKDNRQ
Sequence of PI3K-δ (P27986 whole entry partner, species assumed): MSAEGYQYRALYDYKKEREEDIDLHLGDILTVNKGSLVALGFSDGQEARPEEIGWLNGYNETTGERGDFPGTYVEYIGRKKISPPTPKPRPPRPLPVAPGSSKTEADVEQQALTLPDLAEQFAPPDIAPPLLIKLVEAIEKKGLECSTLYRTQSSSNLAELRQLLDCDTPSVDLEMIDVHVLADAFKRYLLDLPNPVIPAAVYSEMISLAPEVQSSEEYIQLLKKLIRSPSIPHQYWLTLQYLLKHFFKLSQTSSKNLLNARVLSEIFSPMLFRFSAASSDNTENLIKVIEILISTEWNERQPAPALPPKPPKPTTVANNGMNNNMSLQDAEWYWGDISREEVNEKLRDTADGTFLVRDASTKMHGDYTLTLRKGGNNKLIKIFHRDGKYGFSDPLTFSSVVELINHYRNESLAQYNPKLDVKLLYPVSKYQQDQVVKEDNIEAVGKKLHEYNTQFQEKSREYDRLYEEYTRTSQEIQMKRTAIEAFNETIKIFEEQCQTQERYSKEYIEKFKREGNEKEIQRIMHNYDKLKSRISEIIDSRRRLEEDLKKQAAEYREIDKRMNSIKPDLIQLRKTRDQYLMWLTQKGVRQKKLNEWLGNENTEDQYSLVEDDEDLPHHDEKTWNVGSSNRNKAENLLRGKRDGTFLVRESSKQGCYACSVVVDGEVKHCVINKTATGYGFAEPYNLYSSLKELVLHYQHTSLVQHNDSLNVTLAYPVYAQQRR
Sequence of PI3K-β (P42338 whole entry, species assumed): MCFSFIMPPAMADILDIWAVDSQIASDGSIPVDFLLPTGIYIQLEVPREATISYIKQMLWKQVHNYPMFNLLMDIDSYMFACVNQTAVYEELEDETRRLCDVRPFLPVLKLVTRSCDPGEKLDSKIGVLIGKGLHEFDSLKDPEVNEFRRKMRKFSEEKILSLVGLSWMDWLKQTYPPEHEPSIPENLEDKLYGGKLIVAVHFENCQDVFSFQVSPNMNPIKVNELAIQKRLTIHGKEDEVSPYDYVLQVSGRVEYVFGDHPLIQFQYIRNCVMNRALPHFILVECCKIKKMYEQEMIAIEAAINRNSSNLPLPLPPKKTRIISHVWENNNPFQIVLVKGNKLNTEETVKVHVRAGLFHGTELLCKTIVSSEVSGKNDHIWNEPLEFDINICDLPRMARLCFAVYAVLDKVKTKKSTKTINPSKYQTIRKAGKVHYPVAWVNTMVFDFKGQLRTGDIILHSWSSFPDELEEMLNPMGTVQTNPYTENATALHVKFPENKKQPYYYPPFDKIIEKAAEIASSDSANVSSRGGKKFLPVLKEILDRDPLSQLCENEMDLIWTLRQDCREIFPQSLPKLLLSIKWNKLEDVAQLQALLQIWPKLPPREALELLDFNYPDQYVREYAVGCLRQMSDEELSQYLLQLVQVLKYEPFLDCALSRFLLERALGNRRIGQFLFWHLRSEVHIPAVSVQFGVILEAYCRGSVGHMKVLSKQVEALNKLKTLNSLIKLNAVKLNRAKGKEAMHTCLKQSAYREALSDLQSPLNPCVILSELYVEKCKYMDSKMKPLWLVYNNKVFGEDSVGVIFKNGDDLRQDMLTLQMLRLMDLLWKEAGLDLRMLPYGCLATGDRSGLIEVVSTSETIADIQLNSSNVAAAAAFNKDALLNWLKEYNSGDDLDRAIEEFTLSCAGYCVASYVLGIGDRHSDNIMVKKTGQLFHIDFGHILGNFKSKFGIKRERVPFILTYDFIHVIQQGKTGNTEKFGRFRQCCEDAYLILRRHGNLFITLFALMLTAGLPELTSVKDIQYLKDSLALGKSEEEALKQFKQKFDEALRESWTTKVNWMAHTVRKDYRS
Sequence of PI3K-β (P27986 whole entry partner, species assumed): as the sequence (P27986 whole entry partner, species assumed) above
Sequence of PI3K-α (P42336 whole entry, species assumed, canonical isoform): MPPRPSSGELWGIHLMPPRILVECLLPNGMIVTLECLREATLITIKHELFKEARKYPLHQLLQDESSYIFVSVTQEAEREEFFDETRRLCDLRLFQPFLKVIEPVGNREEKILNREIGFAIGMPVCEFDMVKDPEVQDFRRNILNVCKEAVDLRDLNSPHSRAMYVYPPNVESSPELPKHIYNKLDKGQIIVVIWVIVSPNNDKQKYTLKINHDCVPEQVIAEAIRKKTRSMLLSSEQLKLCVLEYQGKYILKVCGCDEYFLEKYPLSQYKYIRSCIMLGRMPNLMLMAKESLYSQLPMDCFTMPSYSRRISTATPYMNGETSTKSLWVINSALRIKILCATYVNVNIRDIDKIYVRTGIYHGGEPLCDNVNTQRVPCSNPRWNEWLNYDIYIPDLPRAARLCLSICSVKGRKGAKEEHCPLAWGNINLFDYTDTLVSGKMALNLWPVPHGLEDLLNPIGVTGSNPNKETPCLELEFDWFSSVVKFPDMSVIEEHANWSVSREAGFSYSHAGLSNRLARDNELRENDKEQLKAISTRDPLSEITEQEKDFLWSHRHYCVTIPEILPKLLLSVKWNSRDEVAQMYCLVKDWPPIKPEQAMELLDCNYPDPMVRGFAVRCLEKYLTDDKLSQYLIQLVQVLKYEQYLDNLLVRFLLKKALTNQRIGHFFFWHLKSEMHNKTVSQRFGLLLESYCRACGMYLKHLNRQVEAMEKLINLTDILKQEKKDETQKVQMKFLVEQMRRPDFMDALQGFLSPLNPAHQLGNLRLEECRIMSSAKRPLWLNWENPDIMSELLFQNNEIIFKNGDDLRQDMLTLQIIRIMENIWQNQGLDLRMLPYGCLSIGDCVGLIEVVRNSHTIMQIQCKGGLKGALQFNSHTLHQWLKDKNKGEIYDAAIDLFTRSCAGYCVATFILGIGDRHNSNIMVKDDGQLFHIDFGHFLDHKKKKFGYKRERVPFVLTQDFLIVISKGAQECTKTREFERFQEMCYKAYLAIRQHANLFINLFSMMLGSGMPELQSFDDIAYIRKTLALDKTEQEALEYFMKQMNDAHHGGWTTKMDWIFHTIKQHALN
Sequence of PI3K-α (P27986 whole entry partner, species assumed, canonical isoform): as the sequence (P27986 whole entry partner, species assumed) above

Compound: Cc1cc(-c2cncc([C@@H](O)C(F)(F)F)c2)nc2c1C(=O)N(c1cnn(CC(F)F)c1)C2(C)C [Compound 1, (R)-6-(1-(2,2-difluoroethyl)-1H-pyrazol-4-yl)-4,7,7-trimethyl-2-(5-(2,2,2-trifluoro-1-hydroxyethyl)pyridin-3-yl)-6,7-dihydro-5H-pyrrolo[3,4-b]pyridin-5-one]
- Ki ([1]; PI3Kα): 280 ± 90 nM
- Fold Selectivity ([1]; PI3Kγ over PI3Kα): 30 fold
- Ki ([2]; PI3Kβ): 220 ± 30 nM
- Fold Selectivity ([2]; PI3Kγ over PI3Kβ): 26 fold
- Ki ([3]; PI3K-gamma, ATP-competitive): 8 nM
- selectivity for PI3K-gamma ([3]; against PI3K-alpha, PI3K-beta and PI3K-delta isoforms): greater than 15 fold
- Fold Selectivity ([4]; PI3Kγ over PI3Kδ): 19 fold
- Ki ([4]; PI3Kδ): 160 ± 50 nM
- IC50 [5]: 570 nM
- reduction of arthritis scores AUC, prophylactic paws only ([6]; 2.5 mg/kg BID): 42%
- reduction of clinical arthritis scores AUC vs vehicle, all paws ([6]; 2.5 mg/kg BID): 28%
- All Paw Score AUC ([6]; 2.5 mg/kg BID): *22.76
- Histopathology Summed Score, Knees ([6]; 2.5 mg/kg BID): 6.83
- Histopathology Summed Score, Paws ([6]; 2.5 mg/kg BID): 8.14
- Histopathology Summed Score, Six Joints ([6]; 2.5 mg/kg BID): 7.70
- Prophylactic Paw Score AUC ([6]; 2.5 mg/kg BID): *41.35
- Therapeutic Paw Score AUC ([6]; 2.5 mg/kg BID): 49.25
- clinical arthritis scores, prophylactic paws (FIG. 3) ([6]; 2.5 mg/kg BID, *d2, 4-11): significantly reduced
- Arthritis scores measured daily, all paws (FIG. 1) ([6]; 2.5 mg/kg BID): significantly reduced toward normal
- reduction of arthritis scores AUC, prophylactic paws only ([6]; 5 mg/kg BID): 81%
- reduction of clinical arthritis scores AUC vs vehicle, all paws ([6]; 5 mg/kg BID): 63%
- All Paw Score AUC ([6]; 5 mg/kg BID): *11.84
- Histopathology Summed Score, Knees ([6]; 5 mg/kg BID): *2.53
- Histopathology Summed Score, Paws ([6]; 5 mg/kg BID): *3.64
- Histopathology Summed Score, Six Joints ([6]; 5 mg/kg BID): *3.27
- Prophylactic Paw Score AUC ([6]; 5 mg/kg BID): *13.35
- Therapeutic Paw Score AUC ([6]; 5 mg/kg BID): 34.00
- clinical arthritis scores, prophylactic paws (FIG. 3) ([6]; 5 mg/kg BID, *d2-11): significantly reduced
- Arthritis scores measured daily, all paws (FIG. 1) ([6]; 5 mg/kg BID): significantly reduced toward normal
- clinical arthritis scores, therapeutic paws (FIG. 2) ([6]; 5 mg/kg BID, *d5-11): significantly reduced
- reduction of arthritis scores AUC, prophylactic paws only ([6]; 10 mg/kg BID): 98%
- reduction of arthritis scores AUC, therapeutic paws only ([6]; 10 mg/kg BID): 79%
- reduction of clinical arthritis scores AUC vs vehicle, all paws ([6]; 10 mg/kg BID): 89%
- All Paw Score AUC ([6]; 10 mg/kg BID): *3.34
- Histopathology Summed Score, Knees ([6]; 10 mg/kg BID): *0.68
- Histopathology Summed Score, Paws ([6]; 10 mg/kg BID): *0.79
- Histopathology Summed Score, Six Joints ([6]; 10 mg/kg BID): *0.75
- Prophylactic Paw Score AUC ([6]; 10 mg/kg BID): *1.60
- Therapeutic Paw Score AUC ([6]; 10 mg/kg BID): *11.75
- clinical arthritis scores, prophylactic paws (FIG. 3) ([6]; 10 mg/kg BID, *d2-11): significantly reduced
- clinical arthritis scores, therapeutic paws (FIG. 2) ([6]; 10 mg/kg BID, *d2-11): significantly reduced
- Arthritis scores measured daily, all paws (FIG. 1) ([6]; 10 mg/kg BID): significantly reduced toward normal
